Reference: the NIST ThermoML archive (doi:10.1016/j.jct.2016.09.007)

Assay: xn = mol fraction of the nth substance listed
Settings: 93.2 kPa, Liquid; for speed of sound: Frequency=3 MHz, Sing-around technique in a fixed-path interferometer; for mass density: Vibrating tube method

CCCC(=O)[O-].CCCC[NH3+] [n-butylammonium butanoate] + CCO
Settings	mass density, 293.15 K [kg/m3]	mass density, 298.15 K [kg/m3]	mass density, 303.15 K [kg/m3]	mass density, 308.15 K [kg/m3]	mass density, 313.15 K [kg/m3]	speed of sound, 293.15 K [m/s]	speed of sound, 298.15 K [m/s]	speed of sound, 303.15 K [m/s]	speed of sound, 308.15 K [m/s]	speed of sound, 313.15 K [m/s]
x1 = 0.0512	814.143	810.002	805.829	801.613	797.355	1199	1182	1165	1148.2	1131.5
x1 = 0.1009	832.02	828.016	823.986	819.912	815.802	1227.7	1210.7	1193.8	1177	1160.4
x1 = 0.1503	846.238	842.335	838.406	834.444	830.445	1251.6	1234.6	1217.8	1201.1	1184.5
x1 = 0.1994	858.208	854.396	850.551	846.681	842.738	1272.7	1255.7	1238.9	1222.2	1205.7
x1 = 0.2504	868.474	864.721	860.912	857.053	853.31	1291.1	1274.2	1257.4	1240.8	1224.2
x1 = 0.2982	876.405	872.722	869.017	865.27	861.491	1306	1289.1	1272.3	1255.7	1239.2
x1 = 0.3495	883.788	880.151	876.505	872.836	869.15	1320	1303.1	1286.3	1269.7	1253.3
x1 = 0.399	890.046	886.464	882.862	879.217	875.544	1332.2	1315.3	1298.5	1282	1265.5
x1 = 0.4372	894.397	890.847	887.284	883.704	880.105	1340.7	1323.8	1307.1	1290.5	1274.1
x1 = 0.4992	900.42	896.912	893.396	889.863	886.306	1352.8	1335.9	1319.2	1302.6	1286.2
x1 = 0.547	904.601	901.123	897.636	894.139	890.621	1361.5	1344.5	1327.7	1311.2	1294.8
x1 = 0.6017	908.757	905.303	901.834	898.348	894.849	1370.4	1353.3	1336.5	1319.9	1303.6
x1 = 0.649	912.071	908.66	905.237	901.798	898.346	1377.6	1360.5	1343.6	1326.9	1310.6
x1 = 0.6917	914.76	911.378	907.983	904.574	901.145	1384	1366.7	1349.7	1333	1316.6
x1 = 0.7436	917.782	914.431	911.071	907.692	904.29	1391.5	1373.9	1356.7	1339.9	1323.4
x1 = 0.7901	920.284	916.95	913.616	910.264	906.897	1398.2	1380.2	1362.8	1345.9	1329.3
x1 = 0.8493	923.093	919.763	916.446	913.124	909.786	1406.5	1388	1370.2	1352.9	1336.2
x1 = 0.8904	924.887	921.547	918.232	914.921	911.604	1412.5	1393.5	1375.2	1357.7	1340.7
x1 = 0.94	927.026	923.73	920.395	917.09	913.789	1420.7	1400.8	1382	1364	1346.7
x1 = 1	928.794	925.509	922.217	918.88	915.567	1431.5	1410.3	1390.4	1371.5	1353.6
